The structures appear in SMILES notation.

Common to all, as to assay type: biochemical
The target of one test is PKC theta (Homo sapiens, UniProt Q04759). Description: PKC Theta I coupled-enzyme (NADH absorbance) kinase assay. The settings on record: 18 nM PKC theta, 240 μM ATP, 30° C., absorbance at 340 nm. The protocol: An assay buffer solution was prepared which consisted of 100 mM HEPES (pH 7.5), 10 mM MgCl2, 25 mM NaCl, 0.1 mM EDTA and 0.01% Brij. […] To 60 μL of this enzyme buffer, in a 384 well plate, was added 2 μL of VRT stock solution in DMSO. The mixture was allowed to equilibrate for 10 mins at 30° C. […] Ki values were calculated from initial rate data by non-linear regression using the Prism software package (Prism 4.0a, Graphpad Software, San Diego, Calif.).

For a further test, the target named is PKC delta kinase (Homo sapiens, UniProt Q05655). Kind of test: PKC Delta coupled-enzyme kinase assay. The settings on record: 46 nM PKC delta, 150 μM ATP, 30° C.; read-out: Ki PKC delta. As to the method:
An assay buffer solution was prepared which consisted of 100 mM HEPES (pH 7.5), 10 mM MgCl2, 25 mM NaCl, 0.1 mM EDTA and 0.01% Brij. […] To 16 μL of this enzyme buffer, in a 384 well plate, was added 1 μL of VRT stock solution in DMSO. The mixture was allowed to equilibrate for 10 mins at 30° C. […] Ki values were calculated from initial rate data by non-linear regression using the Prism software package (Prism 4.0a, Graphpad Software, San Diego, Calif.).

The target of another test is PKC alpha kinase (Homo sapiens, UniProt P17252). Description: PKC Alpha coupled-enzyme kinase assay. Conditions: 4.5 nM PKC alpha, 130 μM ATP, 30° C. The protocol:
An assay buffer solution was prepared which consisted of 100 mM HEPES (pH 7.5), 10 mM MgCl2, 25 mM NaCl, 0.1 mM EDTA, 100 μM CaCl2 and 0.01% Brij. […] To 16 μL of this enzyme buffer, in a 384 well plate, was added 1 μL of VRT stock solution in DMSO. The mixture was allowed to equilibrate for 10 mins at 30° C. The enzyme reaction was initiated by the addition of 16 μL stock ATP solution prepared in assay buffer to a final assay concentration of 130 μM. Initial rate data was determined from the rate of change of absorbance at 340 nm (corresponding to stoichiometric consumption of NADH) using a Molecular Devices Spectramax plate reader (Sunnyvale, Calif.) over 15 mins at 30° C. For each Ki determination 12 data points covering the VRT concentration range of 0-20 μM were obtained in duplicate (DMSO stocks were prepared from an initial 10 mM VRT stock with subsequent 1:2 serial dilutions). Ki values were calculated from initial rate data by non-linear regression using the Prism software package (Prism 4.0a, Graphpad Software, San Diego, Calif.).

PKC delta kinase, sequence (Q05655 whole entry): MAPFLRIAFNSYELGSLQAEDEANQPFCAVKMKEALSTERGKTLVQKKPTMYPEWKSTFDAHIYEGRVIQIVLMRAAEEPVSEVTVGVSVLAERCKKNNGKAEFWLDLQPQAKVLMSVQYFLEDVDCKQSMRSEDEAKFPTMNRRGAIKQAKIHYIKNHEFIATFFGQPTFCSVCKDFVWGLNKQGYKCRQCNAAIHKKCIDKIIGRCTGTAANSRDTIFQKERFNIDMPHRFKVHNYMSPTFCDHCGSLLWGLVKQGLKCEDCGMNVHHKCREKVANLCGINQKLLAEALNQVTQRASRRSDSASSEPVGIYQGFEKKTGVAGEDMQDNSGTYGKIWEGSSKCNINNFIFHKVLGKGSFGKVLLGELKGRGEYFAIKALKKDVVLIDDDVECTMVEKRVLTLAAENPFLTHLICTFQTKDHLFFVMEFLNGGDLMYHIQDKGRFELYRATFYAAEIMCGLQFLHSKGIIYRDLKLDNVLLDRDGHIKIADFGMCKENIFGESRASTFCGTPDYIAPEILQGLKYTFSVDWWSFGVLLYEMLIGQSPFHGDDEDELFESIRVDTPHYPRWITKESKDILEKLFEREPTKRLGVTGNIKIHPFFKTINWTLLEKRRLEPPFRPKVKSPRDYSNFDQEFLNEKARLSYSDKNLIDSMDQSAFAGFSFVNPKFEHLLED
PKC theta, sequence (Q04759 whole entry): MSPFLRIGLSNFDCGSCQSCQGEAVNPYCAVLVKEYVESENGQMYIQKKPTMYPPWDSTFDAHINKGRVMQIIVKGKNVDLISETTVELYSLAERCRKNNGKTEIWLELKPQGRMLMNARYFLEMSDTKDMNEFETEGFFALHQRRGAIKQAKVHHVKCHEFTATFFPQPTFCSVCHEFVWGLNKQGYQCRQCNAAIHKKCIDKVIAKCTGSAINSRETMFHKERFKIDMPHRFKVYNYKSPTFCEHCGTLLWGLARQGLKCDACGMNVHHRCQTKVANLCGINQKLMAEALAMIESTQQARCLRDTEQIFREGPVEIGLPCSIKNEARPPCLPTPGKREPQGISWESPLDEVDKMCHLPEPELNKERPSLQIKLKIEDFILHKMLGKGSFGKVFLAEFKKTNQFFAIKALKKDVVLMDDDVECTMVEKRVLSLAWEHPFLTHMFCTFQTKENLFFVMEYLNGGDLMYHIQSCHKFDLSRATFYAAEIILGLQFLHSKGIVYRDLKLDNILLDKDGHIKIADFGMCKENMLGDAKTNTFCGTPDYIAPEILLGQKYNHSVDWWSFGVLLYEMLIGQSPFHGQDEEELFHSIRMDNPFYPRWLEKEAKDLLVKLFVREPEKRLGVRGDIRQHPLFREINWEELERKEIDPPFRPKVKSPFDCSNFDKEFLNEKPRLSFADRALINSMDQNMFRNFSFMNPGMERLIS

`Nc1ncccc1C(=O)c1cccc(N2CCCN(C(=O)Oc3ccccc3Cl)CC2)n1` [compound 15] showed a Ki at PKC theta of 0.5 to 2.8 µM. On the same count and under the same terms, the result for `Nc1ncccc1C(=O)c1cccc(N2CCCN(C(=O)C3CC3)CC2)n1` [compound 36] reads 0.5 to 2.8 µM; that for `Nc1ncccc1C(=O)c1cccc(N2CCCN(C(=O)C3CCCCC3)CC2)n1` [compound 38], 0.5 to 2.8 µM; that for `CC(C)N(Cc1ccccc1)C(=O)c1ccc(C(=O)c2cccnc2N)s1` [compound 48], 0.5 to 2.8 µM.

`Nc1ncccc1C(=O)c1cccc(N2CCCN(C(=O)Oc3ccccc3)CC2)n1` [compound 52] registered a Ki on PKC theta of 0.5 to 2.8 µM. Turning to `C=Cc1cnc(N)c(C(=O)c2cccc(N3CCCN(C(=O)OC(C)(C)C)CC3)n2)c1` [compound 60], the Ki at PKC theta lay within 0.5 to 2.8 µM. At PKC theta, `COC(=O)N1CCCN(c2cccc(C(=O)c3cc(Br)cnc3N)n2)CC1` [compound 69] had a Ki of 0.5 to 2.8 µM. For the molecule `Nc1ncc(Br)cc1C(=O)c1cc(N2CCCNCC2)cs1` [compound 83], the Ki at PKC theta lay within 0.5 to 2.8 µM. The same measure, in the same setting: in the case of `Nc1ncccc1C(=O)c1cc(N2CCCNCC2)cs1` [compound 84] it was 0.5 to 2.8 µM. Take `Nc1ncccc1C(=O)c1cccc(N2CCC(N)C2)n1` (stereo not drawn) [compound 85]: the Ki on PKC theta lay within 0.5 to 2.8 µM. The same measure, in the same setting: in the case of `Nc1ncccc1C(=O)c1nc(N2CCCN(C(=O)CC(F)(F)F)CC2)cs1` [compound 95] it was 0.5 to 2.8 µM. Still for that read-out and setting: the result for `N#CCCN1CCN(c2cccc(C(=O)c3cc(Br)cnc3N)n2)CC1` [compound 96] reads 0.5 to 2.8 µM; that for `Nc1ncc(Br)cc1C(=O)c1cccc(N2CCN(CCO)CC2)n1` [compound 97], 0.5 to 2.8 µM; that for `CN(Cc1ccccc1)C(=O)c1ccc(C(=O)c2cccnc2N)s1` [compound 103], 0.5 to 2.8 µM. The same measure, in the same setting: the result for `Nc1ncccc1C(=O)c1ccnc(N2CCCNCC2)n1` [compound 111] reads 0.5 to 2.8 µM; that for `NC(=O)C1CCCN(c2cccc(C(=O)c3cc(Br)cnc3N)n2)C1` (stereo not drawn) [compound 122], 0.5 to 2.8 µM; that for `Nc1ncc(Br)cc1C(=O)c1cccc(N2CC[C@H](O)C2)n1` [compound 123], 0.5 to 2.8 µM.

On to `CN(CC(O)c1ccccc1)c1cccc(C(=O)c2cc(Br)cnc2N)n1` (stereo not drawn) [compound 124], for which, on PKC theta, the Ki is 0.5 to 2.8 µM. Still for that read-out and setting: in the case of `Nc1ncccc1C(=O)c1csc(N2CCCNCC2)n1` [compound 125] it was 0.5 to 2.8 µM; in that of `Nc1ncccc1C(=O)c1cccc(N2CCC(NC(=O)CC(F)(F)F)CC2)n1` [compound 129], 0.5 to 2.8 µM. For `Nc1ncc(Br)cc1C(=O)c1cccc(NCCN2CCCCC2)n1` [compound 141], at PKC theta, the Ki fell in the range of 0.5 to 2.8 µM. Same read-out and setting: the result for `CCN(Cc1ccccc1)c1cccc(C(=O)c2cc(Br)cnc2N)n1` [compound 142] reads 0.5 to 2.8 µM. In turn, `CN(C)CCN(Cc1ccccc1)c1cccc(C(=O)c2cc(Br)cnc2N)n1` [compound 143] returned a Ki at PKC theta of 0.5 to 2.8 µM. At PKC theta, `Nc1ncc(Br)cc1C(=O)c1cccc(N2CCN(C3CCCC3)CC2)n1` [compound 144] returned a Ki of 0.5 to 2.8 µM.

As to `CC(C)=Cc1cnc(N)c(C(=O)c2cccc(N3CCCNCC3)n2)c1` [compound 246], the figures for the Ki on PKC delta kinase and on PKC alpha kinase were 0.05 to 0.5 µM and less than 0.05 µM, respectively. Turning to `Nc1ncccc1C(=O)c1cccc(N2CCNC(CO)C2)n1` (stereo not drawn) [compound 303], the Ki at PKC delta kinase fell in the range of 0.05 to 0.5 µM; at PKC alpha kinase, 0.5 to 2.8 µM. For `Nc1ncccc1C(=O)c1cccc(N2CCNC(c3ccc(Cl)cc3)C2)n1` (stereo not drawn) [compound 307] the same measures were 0.5 to 2.8 µM and 0.5 to 2.8 µM. For `COc1ccc(C2CN(c3cccc(C(=O)c4cccnc4N)n3)CCN2)cc1` (stereo not drawn) [compound 310] the same measures were 0.05 to 0.5 µM and 0.5 to 2.8 µM. Regarding `Nc1ncc(Br)cc1C(=O)c1nc(N2CCNCC2)ccc1C(F)(F)F` [compound 325], the Ki was 0.05 to 0.5 µM at PKC delta kinase and less than 0.05 µM at PKC alpha kinase.

For the molecule `Nc1ncc(Br)cc1C(=O)c1nc(N2CCNC(c3ccccc3)C2)ccc1C(F)(F)F` (stereo not drawn) [compound 326], the Ki at PKC delta kinase is 0.05 to 0.5 µM; at PKC alpha kinase it was less than 0.05 µM.

Consider `C=Cc1cnc(N)c(C(=O)c2nc(N3CCNC(c4ccccc4)C3)ccc2C(F)(F)F)c1` (stereo not drawn) [compound 328], for which the Ki at PKC delta kinase is 0.05 to 0.5 µM; on PKC alpha kinase, less than 0.05 µM.

Regarding `C=Cc1cnc(N)c(C(=O)c2nc(N3CCNC(c4ccccc4)C3)ccc2Cl)c1` (stereo not drawn) [compound 332], the Ki on PKC delta kinase is 0.05 to 0.5 µM; at PKC alpha kinase, less than 0.05 µM. For `NCC1CCCN(c2cccc(C(=O)c3cccnc3N)n2)C1` (stereo not drawn) [compound 333] the same measures were more than 2.8 µM and more than 2.8 µM. As for `Cc1ccc(C2CN(c3cccc(C(=O)c4cccnc4N)n3)CCN2)cc1` (stereo not drawn) [compound 336], the Ki on PKC delta kinase and on PKC alpha kinase was 0.5 to 2.8 µM in each case. Turning to `CC(C)[C@H]1CN(c2ccc(C(F)(F)F)c(C(=O)c3cccnc3N)n2)CCN1` [compound 338], the figures for the Ki at PKC delta kinase and at PKC alpha kinase were 0.05 to 0.5 µM and 0.5 to 2.8 µM, respectively. For `Cc1ccccc1C1CN(c2cccc(C(=O)c3cccnc3N)n2)CCN1` (stereo not drawn) [compound 339] the same measures were 0.05 to 0.5 µM and 0.5 to 2.8 µM. As for `Nc1ncccc1C(=O)c1nc(Cl)cnc1N1CCNCC1` [compound 340], the Ki on PKC delta kinase and on PKC alpha kinase was more than 2.8 µM in each case.

On to `Nc1ncccc1C(=O)c1nccc(N2CCNC(c3ccccc3)C2)n1` (stereo not drawn) [compound 341], for which the Ki at PKC delta kinase and on PKC alpha kinase was more than 2.8 µM throughout.

On to `C=Cc1ccc(N2CCNCC2)nc1C(=O)c1cccnc1N` [compound 342], for which the results for the Ki on PKC delta kinase and on PKC alpha kinase were 0.05 to 0.5 µM and 0.5 to 2.8 µM, respectively. As to `Nc1ncccc1C(=O)c1nc(N2CCNCC2)cnc1Cl` [compound 343], the Ki lay in the range of 0.05 to 0.5 µM on PKC delta kinase and 0.5 to 2.8 µM on PKC alpha kinase.

Turning to `Nc1ncccc1C(=O)c1nccc(N2CCNCC2)n1` [compound 344], the Ki on PKC delta kinase and at PKC alpha kinase was more than 2.8 µM in each case. For `CC(C)C[C@H]1CN(c2ccnc(C(=O)c3cccnc3N)n2)CCN1` [compound 345], the Ki is more than 2.8 µM on PKC delta kinase and 0.5 to 2.8 µM at PKC alpha kinase. In the same order, the values of `CCc1ccc(N2CCNCC2)nc1C(=O)c1cccnc1N` [compound 348] are 0.05 to 0.5 µM and more than 2.8 µM.

`CCc1ccc(N2CCNC(c3ccccc3)C2)nc1C(=O)c1cccnc1N` (stereo not drawn) [compound 350]: the results for the Ki on PKC delta kinase and on PKC alpha kinase were 0.05 to 0.5 µM and 0.5 to 2.8 µM, respectively. On to `CC(=O)c1ccc(N2CCN[C@@H](CC(C)C)C2)nc1C(=O)c1cccnc1N` [compound 351], for which the Ki is 0.5 to 2.8 µM on PKC delta kinase and more than 2.8 µM on PKC alpha kinase.

`CC(F)(F)c1ccc(N2CCNC(c3ccccc3)C2)nc1C(=O)c1cccnc1N` (stereo not drawn) [compound 355]: the Ki on PKC delta kinase lay in the range of 0.05 to 0.5 µM; on PKC alpha kinase, 0.5 to 2.8 µM.

Take `Nc1ncccc1C(=O)c1nc(N2CCNC(c3ccccc3)C2)ccc1OC(F)F` (stereo not drawn) [compound 360]: the results for the Ki on PKC delta kinase and at PKC alpha kinase were 0.05 to 0.5 µM and 0.5 to 2.8 µM, respectively. In the same order, the values of `NCCSc1ccc(C(F)(F)F)c(C(=O)c2cccnc2N)n1` [compound 367] are 0.5 to 2.8 µM and 0.5 to 2.8 µM.

`NCCNc1ccc(C(F)(F)F)c(C(=O)c2cccnc2N)n1` [compound 371]: the Ki on PKC delta kinase and on PKC alpha kinase was 0.5 to 2.8 µM in each case.

Regarding `NCCCNc1ccc(C(F)(F)F)c(C(=O)c2cccnc2N)n1` [compound 372], the Ki on PKC delta kinase and on PKC alpha kinase was 0.5 to 2.8 µM each time. Consider `Nc1ncccc1C(=O)c1nc(NCC2CCNC2)ccc1C(F)(F)F` (stereo not drawn) [compound 377], for which the Ki lay in the range of 0.05 to 0.5 µM on PKC delta kinase and 0.5 to 2.8 µM on PKC alpha kinase. For `Nc1ncccc1C(=O)c1nc(NCC2CCCN2)ccc1C(F)(F)F` (stereo not drawn) [compound 379] the same measures were 0.5 to 2.8 µM and 0.5 to 2.8 µM. For `Nc1ncccc1C(=O)c1nc(NCC2CCCNC2)ccc1C(F)(F)F` (stereo not drawn) [compound 387] the same measures were 0.05 to 0.5 µM and 0.5 to 2.8 µM. Regarding `Cc1cccc(C2CN(c3ccc(C(F)(F)F)c(C(=O)c4cccnc4N)n3)CCN2)c1` (stereo not drawn) [compound 392], the values for the Ki at PKC delta kinase and on PKC alpha kinase were 0.05 to 0.5 µM and less than 0.05 µM, respectively. In the same order, the values of `CC(C)[C@H](N)CNc1ccc(C(F)(F)F)c(C(=O)c2cccnc2N)n1` [compound 395] are 0.5 to 2.8 µM and 0.5 to 2.8 µM. For the molecule `CC(C)[C@H](N)COc1ccc(C(F)(F)F)c(C(=O)c2cccnc2N)n1` [compound 400], the Ki at PKC delta kinase and on PKC alpha kinase was 0.5 to 2.8 µM each time.

Turning to `CC(C)C[C@H]1CN(c2ccc(CC(F)F)c(C(=O)c3cccnc3N)n2)CCN1` [compound 401], the results for the Ki at PKC delta kinase and at PKC alpha kinase were 0.05 to 0.5 µM and 0.5 to 2.8 µM, respectively.
